The record followed here is patent US6069166A, “Fused heterocyclic benzenecarboxamide derivatives and PGD2 antagonists comprising them” (Shionogi & Co., Ltd., priority 1996, dated 2000).

Experiment [1] concerns the target T1, PGD2 Receptor (Homo sapiens, UniProt Q13258).
T1 construct: A suspension adjusted to contain platelet at a final concentration of; endogenous in cells; host or cells: washed human platelets from peripheral blood of a healthy volunteer
T1 sequence (Q13258 1-359): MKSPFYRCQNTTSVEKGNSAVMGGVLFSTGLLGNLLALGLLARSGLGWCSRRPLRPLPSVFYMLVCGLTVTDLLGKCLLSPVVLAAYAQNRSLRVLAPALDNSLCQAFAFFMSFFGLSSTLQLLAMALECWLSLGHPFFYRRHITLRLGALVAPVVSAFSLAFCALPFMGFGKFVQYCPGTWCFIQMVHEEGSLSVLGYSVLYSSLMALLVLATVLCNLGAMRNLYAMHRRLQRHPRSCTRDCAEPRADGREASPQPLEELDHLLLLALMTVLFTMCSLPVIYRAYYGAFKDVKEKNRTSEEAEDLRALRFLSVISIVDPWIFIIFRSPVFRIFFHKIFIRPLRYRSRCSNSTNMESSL
Nature of the experiment: Binding to PGD2 receptor (human platelet membrane fraction, [3H]PGD2). The note with it: human platelet membrane fraction 0.1 mg, 5 nM [3H]PGD2, 4° C., 90 min, pH 7.4; read-out: IC50 (inhibition of [3H]PGD2 binding). How it is done: Experiment 1 Binding to PGD2 Receptor
(1) Preparation of Human Platelet Membrane Fraction
Blood sample was obtained using a plastic syringe containing 3.8% sodium citrate from the vein of healthy volunteers (adult male and female), put into a plastic test tube and mixed gently by rotation. The sample was then centrifuged at 1800 rpm, 10 min at room temperature, and the supernatant containing PRP (platelet-rich plasma) was collected. The PRP was re-centrifuged at […], 22 min at room temperature to obtain platelets. The platelets were homogenized using a homogenizer (Ultra-Turrax) followed by centrifugation 3 times at 20,000 rpm, 10 min at 4° C. to obtain a platelet membrane fraction. After protein determination, the membrane fraction was adjusted to 2 mg/ml and preserved in a refrigerator at -80° C. until use.
(2) Binding to PGD2 Receptor
To a binding-reaction solution (50 mM Tris/HCl, pH 7.4, 5 mM MgCl2) (0.2 ml) were added the human platelet membrane fraction (0.1 mg) and 5 nM [^3 H]PGD2 (115Ci/mmol), and reacted at 4° C. for 90 min. After the reaction completed, the reaction mixture was filtered through a glass fiber filter paper, washed several times with cooled saline, and measured the radioactivity retained on the filter paper. The specific binding was calculated by subtracting the non-specific binding (the binding in the presence of 10 μM PGD2) from the total binding. The inhibitory activity of each compound was expressed as the concentration required for 50% inhibition (IC50), which was determined by depicting a substitution curve by plotting the binding ratio (%) in the presence of each compound, where the binding ratio in the absence of a test compound is 100%.

For experiment [2], the target named is T1, PGD2 Receptor. The experiment is described as follows: Antagonistic activity against PGD2 receptor using human platelet (PGD2-induced cAMP increase). In kind it is cell-based. As to conditions: human platelets 5×10^8/ml, 0.1 μM PGD2, IBMX 0.5 mM, cAMP by radioimmunoassay; read-out: IC50 (inhibition of cAMP increased by PGD2). As to the method:
Experiment 2 Evaluation of Antagonistic Activity Against PGD2 Receptor Using Human Platelet Peripheral blood was obtained from a healthy volunteer using a syringe in which 1/9 volume of citric acid/dextrose solution has been previously added. The syringe was subjected to centrifugation at 180 g for 10 min to obtain the supernatant (PRP:platelet rich plasma). The resultant PRP was washed 3 times with a washing buffer and the number of platelet was counted with a micro cell counter. A suspension adjusted to contain platelet at a final concentration of 5×10^8 /ml was warmed at 37° C., and then subjected to the pre-treatment with 3-isobutyl-1-methylxanthine (0.5 mM) for 5 min. To the suspension was added a test compound diluted at various concentration. Ten-minute later, the reaction was induced by the addition of 0.1 μM PGD2 and, 2-minute later, stopped by the addition of hydrochloric acid. The platelet was destroyed with an ultrasonic homogenizer. After centrifugation, the cAMP in the supernatant was determined by radioimmunoassay. PGD2 receptor antagonism of a drug was evaluated as follows. The inhibition rate regarding cAMP increased by the addition of PGD2 was determined at individual concentration, and then the concentration of the drug required for 50% inhibition (IC50) was calculated.

Experiment [3] deals with nasal blockage (intranasal pressure). Nature of the experiment: Nasal blockage model in sensitized guinea pigs (intranasal pressure after OVA challenge). The note with it: oral, 60 min before antigen exposure; AUC of intranasal pressure 0-30 min vs vehicle; dose not given. In kind it is in vivo, Hartley male guinea pig. How it is done:
Experiment 3 Experiment Using Nasal Blockage Model
The method used for measuring the intranasal pressure for evaluating the anti-nasal blockage using guinea pigs is described below.
A 1% ovalbumin (OVA) solution was treated with an ultrasonic nebulizer to obtain an aerosol. Hartley male guinea pig was sensitized by inhaling twice the aerosol for 10 min at one-week interval. Seven-day after the sensitization, the guinea pig was exposed to an antigen to initiate the reaction. Briefly, the trachea was incised under the anesthesia with pentobarbital (30 mg/kg. i.p.) and cannulas were inserted into the trachea at the pulmonary and nasal cavity sides. The canal inserted at the pulmonary side was connected with an artificial respirator that provides 4 ml air 60 times/min. After arresting the spontaneous respiration of the guinea pig with Gallamin (2 mg/kg, i.v.), air was supplied to the snout side with an artificial respirator at the frequency of 70 times/min, and the flow rate of 4 ml air/time, and the atmospheric pressure required for the aeration was measured by the use of a transducer fitted at the branch. The measurement was used as a parameter of the nasal cavity resistance. The exposure of an antigen was carried out by generating aerosol of 3% OVA solution for 3 min between the respirator and the nasal cavity cannula. […]

The structures appear in SMILES notation.

Regarding `CC1(C)[C@H]2C[C@H](C/C=C\CCCC(=O)O)[C@@H](NC(=O)c3cccc4ccsc34)[C@@H]1C2` [IA-a-1], the IC50 on PGD2 Receptor [1] came to 26 nM; at PGD2 Receptor [2] it was 42 nM. For the same molecule, the “Inhibitory Rate (%)” value in experiment [3] came to 80%.

As to `CC1(C)[C@H]2C[C@H](C/C=C\CCCC(=O)O)[C@@H](NC(=O)c3cccc4c(Br)csc34)[C@@H]1C2` [IA-a-7], the values for the IC50 on PGD2 Receptor [1] and at PGD2 Receptor [2] were 1.2 nM and 11 nM, respectively.

For the molecule `COc1csc2c(C(=O)N[C@@H]3[C@@H](C/C=C\CCCC(=O)O)C[C@H]4C[C@@H]3C4(C)C)cccc12` [IA-a-9], the IC50 on PGD2 Receptor [1] worked out at 0.41 nM; at PGD2 Receptor [2], 4.4 nM.

Turning to `Cc1csc2c(C(=O)N[C@@H]3[C@@H](C/C=C\CCCC(=O)O)C[C@H]4C[C@@H]3C4(C)C)cccc12` [IA-a-4], the IC50 on PGD2 Receptor [1] was 11 nM; at PGD2 Receptor [2], 150 nM.

The IC50 is the concentration at which inhibition is half-maximal.
